Data published in US5955616A, “Pyrrolidine derivatives having phospholipase A2 inhibitory activity” (Shionogi & Co., Ltd., priority 1995, dated 1999).

How the values were obtained:
cPLA2 = target: T1, cPLA2 (Homo sapiens, UniProt P47712); assay: cPLA2 Inhibitory activity (release of radiolabelled fatty acid from liposomes); format: biochemical; conditions: 50 mM HEPES pH 7.4, 1 mM CaCl2, 2.5 μM radio-labeled phosphatidylcholine, 15 min at 37° C; read-out: cPLA2 Inhibition Activity IC50
T1 sequence (P47712 1-749): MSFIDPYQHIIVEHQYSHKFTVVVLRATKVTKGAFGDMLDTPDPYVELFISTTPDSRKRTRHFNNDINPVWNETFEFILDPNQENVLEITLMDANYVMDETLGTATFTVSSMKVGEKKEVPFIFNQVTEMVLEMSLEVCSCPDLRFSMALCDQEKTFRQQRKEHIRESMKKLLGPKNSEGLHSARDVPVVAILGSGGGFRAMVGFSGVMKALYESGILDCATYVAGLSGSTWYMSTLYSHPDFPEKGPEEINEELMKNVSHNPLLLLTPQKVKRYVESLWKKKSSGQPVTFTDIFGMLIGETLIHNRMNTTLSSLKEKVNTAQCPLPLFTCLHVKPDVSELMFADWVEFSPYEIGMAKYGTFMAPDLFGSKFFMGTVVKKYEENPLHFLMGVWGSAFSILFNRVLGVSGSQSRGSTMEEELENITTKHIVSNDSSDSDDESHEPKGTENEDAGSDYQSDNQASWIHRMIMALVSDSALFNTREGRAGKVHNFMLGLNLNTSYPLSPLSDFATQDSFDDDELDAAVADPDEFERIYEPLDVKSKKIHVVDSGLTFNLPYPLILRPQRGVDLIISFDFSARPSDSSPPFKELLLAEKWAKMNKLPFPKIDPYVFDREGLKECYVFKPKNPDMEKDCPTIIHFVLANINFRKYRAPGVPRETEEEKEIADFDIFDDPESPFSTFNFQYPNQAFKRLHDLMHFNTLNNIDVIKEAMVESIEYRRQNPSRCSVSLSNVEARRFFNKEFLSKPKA
Description: Experiment 1 cPLA2 Inhibitory activity
The compounds of the present invention was tested for the cPLA2 inhibitory activity by a method known in a literature (R. M. Kramer, E. F. Roberts, J. Manetta and J. E. Putnam, J. Biol. Chem., 268(8), 5268-5272 ([…])), as outlined below.
As a substrate, liposomes which contain 1-palmitoyl-2-[^14 C]-arachidonoyl-sn-glycero-3-phosphocholine and sn-1,2-dioleoylglycerol at the ratio of 2:1 and have treated ultrasonically were used. The substrate was added to a 50 mM HEPES buffer (pH 7.4) (200 μl) containing 1 mM CaCl2, 2 mM dithiothreitol, 150 mM NaCl, 0.1 mg/ml BSA so as to make the concentration of radio-labeled phosphatidylcholine 2.5 μM. To the solution was added a compound of the present invention in DMSO (10 μl) to obtain reaction solutions each containing the test compound at 250 μM, 50 μM, 10 μm, 2 μM, and 0.4 μM. The reaction was allowed to start by adding an enzyme (cPLA2) (4 ng) and continued for 15 min at 37° C.
The amount of fatty acids released by the reaction was measured on a liquid scintillation counter. Control was obtained by conducting the experiment in the same manner except that a compound of the present invention was not added. The inhibitory activity was expressed as percent (%) to the control value, which was used for the calculation of the concentration required for 50% inhibition (IC50, μM).

[1] = system: Prostaglandin E2 production in human fibroblasts; assay: Inhibition of Production of Prostaglandin E2 in Human Fibroblasts (IL-1 stimulated); format: cell-based; conditions: Fibroblast, stimulation with IL-1, read-out: Inhibitory activity Against the Production of Prostaglandin E2 in Human Fibroblasts IC50
Description: Experiment 2 Inhibition of Production of Prostaglandin E2 in Human Fibroblasts
From this viewpoint, the compounds of the present invention were tested for the effect on the production of prostaglandin E2 by human fibroblasts under the stimulation with IL-1 according to the method of J. M. Dayer et al (CACHECTIN/TUMOR NECROSIS FACTOR STIMULATES COLLAGENASE AND PROSTAGLANDIN E2 PRODUCTION BY HUMAN SYNOVIAL CELLS AND DERMAL FIBROBLASTS; J. M. Dayer, B. Beutlerm and A. Cerami, J. Exp. Med., 162,2163-2168, 1985).

Row | SMILES | IC50 (cPLA2) [µM] | IC50 [1] [µM]
1 | COc1cc(CS[C@H]2C[C@@H](C(=O)Nc3ccc(C=C4SC(=O)NC4=O)cc3)N(C(=O)c3ccccc3)C2)cc(OC)c1OC [Compound A-9] | 5.1 | 3
2 | CCCCNC(=O)N1C[C@@H](SCc2ccccc2)C[C@H]1C(=O)Nc1ccc(C=C2SC(=S)NC2=O)cc1 [Compound A-30] | 16 | 0.51
3 | O=C1NC(=S)S/C1=C\c1cn(NC(=O)[C@@H]2C[C@H](SCc3ccccc3)CN2C(=O)c2ccccc2)c2ccccc12 [Compound A-60] | 6.1 | 1.3
4 | CC(C)(C)OC(=O)N1C[C@@H](SCc2ccccc2)C[C@H]1C(=O)Nc1ccc(C=C2SC(=S)NC2=O)cc1 [Compound A-17] | 6 | 3.2
5 | O=C1NC(=O)C(=Cc2ccc(NC(=O)[C@@H]3C[C@H](SCc4ccccc4)CN3C(=O)c3ccccc3)cc2)S1 [Compound A-3] | 5.3 | 2.4
6 | CC(=O)Nc1c(Cl)cc(S(=O)(=O)N2C[C@@H](SCc3ccccc3)C[C@H]2C(=O)Nc2ccc(/C=C3\SC(=S)NC3=O)cc2)cc1Cl [Compound A-37] | 1.6 | 6.9
7 | O=C1NC(=S)SC1=Cc1ccc(NC(=O)[C@@H]2C[C@H](SCc3ccccc3)CN2C(=O)c2ccncc2)cc1 [Compound A-24] | 9.2 | 4.9
8 | CS[C@H]1C[C@@H](C(=O)Nc2ccc(C=C3SC(=O)NC3=O)cc2)N(C(=O)Cc2ccc(Br)cc2)C1 [Compound A-25] | 18 | 8
9 | CS[C@H]1C[C@@H](C(=O)Nc2ccc(C=C3SC(=S)NC3=O)cc2)N(C(=O)Cc2ccc(Br)cc2)C1 [Compound A-26] | 2.8 | 1.8
10 | CC(C)=CCCC(C)=CCS[C@H]1C[C@@H](C(=O)Nc2ccc(C=C3SC(=O)NC3=O)cc2)N(C(=O)c2ccccc2)C1 [Compound A-11] | 4.7 | 8.5
11 | O=C1NC(=O)C(=C(CO)c2ccc(NC(=O)[C@@H]3C[C@H](SCc4ccccc4)CN3C(=O)Cc3ccc(Br)cc3)cc2)S1 [Compound D-3] |  | 7.1
12 | O=C1NC(=O)C(=Cc2ccc(NC(=O)[C@@H]3C[C@H](SC(c4ccccc4)c4ccccc4)CN3C(=O)c3ccccc3)cc2)S1 [Compound A-12] | 1.3 | 1.6
13 | O=C1NC(=S)SC1=Cc1ccc(NC(=O)[C@@H]2C[C@H](SCc3ccccc3)CN2C(=O)c2cccnc2)cc1 [Compound A-23] | 10 | 8.6
14 | COc1c(C(C)(C)C)cc(CS[C@H]2C[C@@H](C(=O)Nc3ccc(C=C4SC(=O)NC4=O)cc3)N(C(=O)c3ccccc3)C2)cc1C(C)(C)C [Compound A-4] | 1.6 | 4.9
15 | CS[C@H]1C[C@@H](C(=O)Nc2ccc(/C=C3\SC(=O)NC3=O)cc2)N(S(=O)(=O)c2c(Cl)cccc2Cl)C1 [Compound A-40] | 15 | 7.7
16 | O=C1NC(=S)S/C1=C\c1ccc(NC(=O)[C@@H]2C[C@H](SCc3ccccc3)CN2S(=O)(=O)c2c(Cl)cccc2Cl)cc1 [Compound A-41] | 3.4 | 14
17 | CC(C)S[C@H]1C[C@@H](C(=O)Nc2ccc(C=C3SC(=S)NC3=O)cc2)N(C(=O)Cc2ccc(Br)cc2)C1 [Compound A-27] | 5.1 | 2.6
18 | CS[C@H]1C[C@@H](C(=O)Nc2ccc(C=C3SC(=S)NC3=O)cc2)N(C(=O)c2ccc(-c3ccccc3)cc2)C1 [Compound A-21] | 18 | 1
19 | CC(C)(C)OC(=O)N1C[C@@H](SC(c2ccccc2)(c2ccccc2)c2ccccc2)C[C@H]1C(=O)Nc1ccc(/C=C2\OC(=S)NC2=O)cc1 [Compound A-62] | 4.3 | 2.2
20 | O=C1NC(=O)C(=Cc2ccc(NC(=O)[C@@H]3C[C@H](SCc4ccc5ccccc5c4)CN3C(=O)c3ccccc3)cc2)S1 [Compound A-5] | 3.6 | 7
21 | CC(=O)Nc1ccc(S(=O)(=O)N2C[C@@H](SCc3ccccc3)C[C@H]2C(=O)Nc2ccc(/C=C3\SC(=S)NC3=O)cc2)cc1 [Compound A-38] | 6.4 | 4.9
22 | CN(C)c1cccc2c(S(=O)(=O)N3C[C@@H](SCc4ccccc4)C[C@H]3C(=O)Nc3ccc(/C=C4\SC(=S)NC4=O)cc3)cccc12 [Compound A-52] | 5.6 | 2.9
23 | CS[C@H]1C[C@@H](C(=O)Nc2ccc(/C=C3\SC(=O)NC3=O)cc2)N(S(=O)(=O)c2ccc3ccccc3c2)C1 [Compound A-50] | 12 | 
24 | CCCCCCCCCCCCCC(=O)N1C[C@@H](SC)C[C@H]1C(=O)Nc1ccc(C=C2SC(=S)NC2=O)cc1 [Compound A-19] | 4.3 | 
25 | CS[C@H]1C[C@@H](C(=O)Nc2ccc(/C=C3\SC(=S)NC3=O)cc2)N(S(=O)(=O)c2ccc(Br)cc2)C1 [Compound A-34] | 6.3 | 
26 | CC(C)(C)[Si](C)(C)N1C(=O)C[C@H]1C(=O)N1C[C@@H](OC(c2ccccc2)c2ccccc2)C[C@H]1CNC(=O)c1ccc(/C=C2\SC(=O)NC2=O)cc1 [Compound H-14] | 8.2 | 
27 | O=C1NC(=S)S/C1=C\c1ccc(NC(=O)[C@@H]2C[C@H](SCc3ccccc3)CN2S(=O)(=O)Cc2c(Cl)cccc2Cl)cc1 [Compound A-53] |  | 0.83

More lines, main results first:

Row | IC50 (cPLA2) [µM] | SMILES | IC50 [1] [µM]
28 | 3.2 | O=C1NC(=O)/C(=C/c2ccc(C(=O)NC[C@@H]3C[C@H](OCc4ccc(F)cc4F)CN3C(=O)c3ccc(Cn4sccc4=O)cc3)cc2)S1 [Compound H-8] | 9.9
29 | 0.46 | O=C1NC(=O)/C(=C/c2ccc(C=CC[C@@H]3C[C@H](SC(c4ccccc4)(c4ccccc4)c4ccccc4)CN3C(=O)CCc3ccccc3)cc2)S1 [Compound E-2] | 6
30 | 11 | O=C1NC(=O)/C(=C/c2ccc(C(=O)NC[C@@H]3C[C@H](OCc4ccc(F)cc4F)CN3C(=O)CCCCCCC3=CC(=O)c4ccccc4C3=O)cc2)S1 [Compound H-18] | 1.5
31 | 9.7 | O=C1NC(=O)C(=Cc2ccc(S(=O)(=O)NC[C@@H]3C[C@H](SCc4ccccc4)CN3C(=O)c3ccccc3)cc2)S1 [Compound B-7] | 3.6
32 | 4.3 | N#CC(=S)Nc1ccc(C(=O)N2C[C@@H](OC(c3ccccc3)c3ccccc3)C[C@H]2CNC(=O)c2ccc(/C=C3\SC(=O)NC3=O)cc2)cc1 [Compound H-11] | 8.5
33 | 2.2 | COC(=O)c1ccc(CS[C@H]2C[C@@H](CNC(=O)c3ccc(/C=C4\SC(=S)NC4=O)cc3)N(C(=O)c3ccccc3)C2)cc1 [Compound B-5] | 2
34 | 1.2 | COc1ccc(COC(=O)N2C[C@@H](SCc3cc(C(C)(C)C)c(OC)c(C(C)(C)C)c3)C[C@H]2CNC(=O)c2ccc(/C=C3\SC(=O)NC3=O)cc2)cc1 [Compound B-3] | 2.1
35 | 0.82 | O=C1NC(=O)/C(=C/c2ccc(C(=O)NC[C@@H]3C[C@H](SC(c4ccccc4)(c4ccccc4)c4ccccc4)CN3C(=O)CCc3ccccc3)cc2)S1 [Compound B-1] | 7.5
36 | 0.85 | O=C1NC(=O)/C(=C/c2ccc(CCC[C@@H]3C[C@H](SC(c4ccccc4)(c4ccccc4)c4ccccc4)CN3C(=O)CCc3ccccc3)cc2)S1 [Compound E-3] | 
37 | 3.5 | O=C1NC(=O)C(=C(CO)c2ccc(NC(=O)C3CC(OC(c4ccccc4)(c4ccccc4)c4ccccc4)CN3C(=O)c3ccccc3)cc2)S1 (stereo not shown) [Compound I-2] | 
38 | 8.1 | O=C1NC(=O)/C(=C/c2ccc(C(=O)NC[C@@H]3CC(OCc4ccc(F)cc4F)CN3S(=O)(=O)Cc3ccc(Br)cc3)cc2)S1 (stereo partly shown) [Compound H-2] | 
